Results on six compounds are retold here after article PMC12223358 (2025).

Test [1] relates to tel26 (DNA, G4) TTAGGGTTAGGGTTAGGGTTAGGGTT
Kind of test: CD melting, 290 nm. The note with it: 20 mM KCl, 5 mM potassium phosphate, pH 7, 2 µM DNA, 4 µM compound (2 equiv), free Tm 43 °C.

Test [2] deals with ds12 (DNA, duplex) CGCGAATTCGCG
Kind of test: CD melting, 253 nm. The conditions noted are these: 20 mM KCl, 5 mM potassium phosphate; pH 7; 2 µM DNA; 4 µM compound (2 equiv); free Tm 65 °C.

Test [3] relates to CPG-tel26 (DNA, G4) TTAGGGTTAGGGTTAGGGTTAGGGTT
Kind of test: G4-CPG affinity chromatography, UV. The note with it: 50 mM KCl; 10% DMSO, 10% ethanol; 60 µM compound loaded; error ±2%.

Test [4] has as its system CPG-c-myc (DNA, G4) TGGGGAGGGTGGGGAGGGTGGGGAAGGTGGGGA
Kind of test: G4-CPG affinity chromatography, UV. The note with it: 50 mM KCl; 10% DMSO, 10% ethanol; 60 µM compound loaded; error ±2%.

Test [5] relates to CPG-ds27 (DNA, hairpin) CGCGAATTCGCGTTTCGCGAATTCGCG
Kind of test: G4-CPG affinity chromatography, UV. The conditions noted are these: 50 mM KCl; 10% DMSO, 10% ethanol; 60 µM compound loaded; error ±2%.

Test [6] relates to pu22 (DNA, G4) TGAGGGTGGGTAGGGTGGGTAA
Briefly: CD melting, 263 nm. The conditions noted are these: no metal cations, 10 mM Tris-HCl, pH 7, 2 µM DNA, 4 µM compound (2 equiv), free Tm 27 °C.

For test [7], the system named is ds12 (DNA, duplex) CGCGAATTCGCG
Briefly: CD titration. The conditions noted are these: 20 mM KCl, 5 mM potassium phosphate; pH 7, 20 °C; 2 µM DNA; up to 4 µM compound; no relevant CD effect.

In the case of `C[n+]1ccc(C#Cc2cnc3n2c2ncc(C#Cc4cc[n+](C)cc4)n2c2ncc(C#Cc4cc[n+](C)cc4)n32)cc1`, the results for the ΔTm result in test [1] (switch to parallel fold) and in test [2] were “+23 °C” and “+15 °C”, respectively. Also, the “Bound ligand (%)” value is recorded as 75% in test [3], 90% in test [4] and 50% in test [5].

For the compound `C[n+]1ccc(C#Cc2cnc3n4ccnc4n4c(C#Cc5cc[n+](C)cc5)cnc4n23)cc1`, in test [6], the ΔTm result is “+45 °C”. Further, the “Bound ligand (%)” value came out at 79% in test [3], 100% in test [4] and 40% in test [5].

Turning to `C[n+]1ccc(C#Cc2cnc3n4ccnc4n4ccnc4n23)cc1`, the binding entry in test [7] is reported as “no”. For the same compound, the shift in melting temperature (ΔTm) result in test [6] was “+8 °C”. In addition, the “Bound ligand (%)” value in test [3] is given as 66%; in test [4], 88%; in test [5], 15%.

Take `C[n+]1ccccc1C#Cc1cnc2n1c1ncc(C#Cc3cccc[n+]3C)n1c1ncc(C#Cc3cccc[n+]3C)n21`: the results for the ΔTm result in test [1] (switch to parallel fold), in test [6] (two transitions) and in test [2] were “+22 °C”, “+16/ + 63 °C” and “+15 °C”, respectively. The “Bound ligand (%)” value in test [3] amounted to 89%; in test [4], 99%; in test [5], 56%.

As for `C[n+]1ccccc1C#Cc1cnc2n3ccnc3n3c(C#Cc4cccc[n+]4C)cnc3n12`, the figures for the “Bound ligand (%)” value in test [3], in test [4] and in test [5] were 74%, 84% and 39%, respectively.

Turning to `C[n+]1ccccc1C#Cc1cnc2n3ccnc3n3ccnc3n12`, the binding entry in test [7] was “no”. Also, the ΔTm result in test [1] is “+3 °C”; in test [2], −2 °C. For the same compound, the “Bound ligand (%)” value in test [3] worked out at 72%; in test [4], 85%; in test [5], 10%.

The ΔTm is the shift of the melting midpoint relative to a reference.
